Consider four compounds from patent US20220351803A1, “Predicting The Response Of A Microbiota To Dietary Fibers” (MYOTA GMBH, priority 2019, published 2022).

The test system of data set [1] is CaCo cell monolayers. The data set is described as follows: Gut monolayer SCFA absorption measurements (Transwell, apical/basal sampling over 24 h). Particulars: CaCo monolayer-derived rate constant. It counts as in vitro ADME. As for the experimental part: Applicants used a gut monolayer system without the immune component, the Gut monolayer was prepared as previously described by WLK Chen et al. (Chen et al., 2017b) Briefly Caco-2 or C2BBe1 along with HT29-MTX-E21 cells (Sigma) were seeded onto rat tail collagen I-(corning 354236) coated Transwell inserts (Corning 3460) in a 9:1 ratio (1×10^5 cells/cm2) in 500 μl seeding medium. The top and bottom compartments of the Transwell Plate were fed with 500 ul and 1.5 ml of seeding medium. The medium was changed every 2-3 days. After 20 days of gut insert maturation, the cell monolayer was ready to use.
Barrier integrity was quantified by TEER (TransEpithelial Electrical Resistance) using the EVOM2 and the Enfohm-12 (World Precision Instruments) at 37° C. Applicants measured cell monolayer integrity at the beginning and the end of the 24 h long experiment. […]
Gut luminal concentrations of microbially-derived SCFAs is a balance between net production in the lumen and absorption by the host epithelium. Unfortunately, quantitative understanding of the rate of absorption of a given SCFA by cells in the gut epithelia is limited. […] Applicants sought to estimate the order of magnitude of this rate constant, to better understand the fate of SCFAs produced by the microbiota in the colon (i.e. the balance between quantities absorbed versus quantities excreted). […]

For data set [2] the following is noted: dialysis bag constant; cited from earlier work.
The test system of data set [3] is stool microbiota. Put plainly: Ex vivo stool slurry incubation, SCFA production by GC-FID. Also noted: species or system human. As for the experimental part: (§1) Fresh stool samples were collected and weighed before being transferred to anaerobic conditions, in which they were diluted in reduced PBS containing 0.1% L-Cysteine to a ratio of 1 g/5 ml. Samples were homogenized into a slurry before being aliquoted into 96-well plates. Samples of the unaltered slurry were taken for a baseline sample, after which inulin, pectin, and cellulose were added from stock solutions to final slurry concentrations of 10 g/L, 5 g/L and 20 g/L, respectively. Concentrations of inulin and pectin were determined based on the maximum stock concentration we were able to obtain in which the dietary fiber was fully dissolved. Four conditions were measured: inulin, pectin, cellulose and control (no spike-in). The samples were incubated anaerobically at 37° C., and two biological replicates (two different wells in the 96-well plates) were collected at each time point. Samples were collected after 2 and 4 hours from all participants and sent out for SCFA quantification on a GC-FID. Linear production rate was measured between 2 h and 4 h because this allowed Applicants maximum accuracy in measuring the time interval without introducing artefacts due to delays between conditions introduced during setup. Results obtained from slurry in large flasks on a shaker were in good agreement with data obtained in a 96-well plate format.
Chromatographic analysis was carried out using an Agilent 7890B system with a flame ionization detector (FID) (Agilent Technologies, Santa Clara, Calif.). A high resolution gas chromatography capillary column 30 m×0.25 mm coated with 0.25 μm film thickness was used (DB-FFAP) for the volatile acids (Agilent Technologies) and a high resolution gas chromatography capillary column 30 m×0.25 mm coated with 0.50 μm film thickness was used (DB-FFAP) for the nonvolatile acids. Nitrogen was used as the carrier gas. […]
The samples were kept frozen at −80° C. until analysis. […] A sample of the raw fecal material was transferred to a 2 mL tube, the weight of the fecal material was determined and 1.5 mL of HPLC water was added to each sample. […]

Data set [4] deals with stool microbiota. Put plainly: Ex vivo stool slurry incubation, inulin depletion by inulin-specific ELISA. Also noted: species or system human. As for the experimental part:
as §1
Applicants use BioPAL's inulin immunoassay kit (BioPAL Worcester Mass.) to measure inulin concentration in filtrate from stool samples and follow manufacture's protocol. […]
To measure SCFA production ex vivo in response to different dietary polysaccharides, stool from 40 healthy human participants was homogenized into a slurry in anaerobic conditions and spiked with inulin, pectin or cellulose (cf. Methods). The slurry was then allowed to evolve over time and samples obtained at regular intervals in order to quantify SCFA content at each timepoint (FIG. 1). In order to determine the appropriate sampling frequency, Applicants performed pilot experiments in which Applicants analysed the trajectory of each SCFA concentration over a 24 h period. […]

For the compound `CCCC(=O)[O-].[Na+]` [butyrate, Sodium Butyrate], the “absorption rate constant of butyrate” value is given as 0.091 mmol L-1h-1cm-2 in data set [1] and 0.0019 mmol L-1h-1cm-2 in data set [2].
As to cellulose, in data set [3] (20 g/L cellulose, timepoints 2 h and 4 h), the “SCFA production rates versus control (no spike-in)” value was “indistinguishable from control”.
inulin: in data set [4] (10 g/L inulin, 4 h), the “inulin substrate in slurry after 4 h” value was “a significant fraction of inulin substrate remained”. Moreover, in data set [4] (10 g/L inulin, 24 h, five of the six participants tested), the “inulin substrate in slurry by 24 h” value is given as “almost entirely consumed”. Besides, the “time for the majority of inulin to be fermented by the microbiota ex vivo” value in data set [4] (input concentration 10 g/L, most participants) fell in the range of 12 to 24 h. The “butyrate concentration over 24 h” value in data set [3] (participant C) is on record as “only produces butyrate from inulin”.
For the compound pectin, the “butyrate concentration over 24 h” value in data set [3] (participant G) is listed as “produces it from pectin as well”.
